In PubChem BioAssay (NCI):
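Assay format: 96-well plates, 48-hour exposure. GI50: concentration for 50% inhibition of growth. TGI denotes the concentration required for complete inhibition of growth.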

Assays:
Test in all cases: NCI anticancer screen, dose series, 48 h; in the data active = GI50 below about 0.43 µM; inactive = the rest
[1] = tested on: NCI-H522 lung
[2] = tested on: UO-31 renal
[3] = tested on: TK-10 renal
[4] = tested on: T-47D breast
[5] = tested on: SK-MEL-2 melanoma
[6] = tested on: 786-0 renal
[7] = tested on: RXF 393 renal
[8] = tested on: KM12 colon
[9] = tested on: EKVX NSCLC
[10] = tested on: IGROV1 ovarian
[11] = tested on: OVCAR-5 ovarian
[12] = tested on: CCRF-CEM leukemia
[13] = tested on: SW-620 colon
[14] = tested on: SN12C renal
[15] = tested on: HOP-62 NSCLC
[16] = tested on: SK-MEL-28 melanoma
[17] = tested on: UACC-62 melanoma
[18] = tested on: OVCAR-8 ovarian
[19] = tested on: HL-60(TB) leukemia
[20] = tested on: SNB-75 CNS
[21] = tested on: HCT-116 colon
[22] = tested on: BT-549 breast
[23] = tested on: NCI-H23 lung
[24] = tested on: A498 renal
[25] = tested on: CAKI-1 renal
[26] = tested on: HCC-2998 colon
[27] = tested on: NCI/ADR-RES ovarian
[28] = tested on: RPMI-8226 leukemia
[29] = tested on: A549 NSCLC
[30] = tested on: MCF7 breast
[31] = tested on: OVCAR-3 ovarian
[32] = tested on: HT29 colon
[33] = tested on: M14 melanoma
[34] = tested on: OVCAR-4 ovarian
[35] = tested on: HCT-15 colon
[36] = tested on: U251 CNS
[37] = tested on: NCI-H226 lung
[38] = tested on: COLO 205 colon
[39] = tested on: K-562 leukemia
[40] = tested on: SR leukemia
[41] = tested on: MDA-MB-231 breast
[42] = tested on: NCI-H460 lung
[43] = tested on: MALME-3M melanoma
[44] = tested on: SF-295 CNS
[45] = tested on: DU-145 prostate
[46] = tested on: SK-MEL-5 melanoma
[47] = tested on: PC-3 prostate
[48] = tested on: HS 578T breast
[49] = tested on: MOLT-4 leukemia
[50] = tested on: HOP-92 NSCLC
[51] = tested on: SK-OV-3 ovarian
[52] = tested on: LOX IMVI melanoma
[53] = tested on: SF-539 CNS
[54] = tested on: MDA-MB-435
[55] = tested on: SNB-19 CNS
[56] = tested on: SF-268 CNS
[57] = tested on: ACHN renal

C[C@@H]1CN2[C@H]3[C@@H]1CC[C@]31CCC(=O)O[C@]1(C)[C@H]1CC[C@H]3CCC=C3[C@@H]12
inactive: GI50 [1] > 30 µM | GI50 [2] > 30 µM | GI50 [3] > 30 µM | GI50 [4] > 30 µM | GI50 [5] > 30 µM | GI50 [6] > 30 µM | GI50 [7] > 30 µM | GI50 [8] > 30 µM | GI50 [9] > 30 µM | GI50 [10] > 30 µM | GI50 [11] > 30 µM | GI50 [12] > 30 µM | GI50 [13] > 30 µM | GI50 [14] > 30 µM | GI50 [15] > 30 µM | GI50 [16] > 30 µM | GI50 [17] > 30 µM | GI50 [18] > 30 µM | GI50 [19] > 30 µM | GI50 [20] > 30 µM | GI50 [21] > 30 µM | GI50 [22] > 30 µM | GI50 [23] > 30 µM | GI50 [24] > 30 µM | GI50 [25] > 30 µM | GI50 [26] > 30 µM | GI50 [27] > 30 µM | GI50 [28] > 30 µM | GI50 [29] > 30 µM | GI50 [30] > 30 µM | GI50 [31] > 30 µM | GI50 [32] > 30 µM | GI50 [33] > 30 µM | GI50 [34] > 30 µM | GI50 [35] > 30 µM | GI50 [36] > 30 µM | GI50 [37] > 30 µM | GI50 [38] > 30 µM | GI50 [39] > 30 µM | GI50 [40] > 30 µM | GI50 [41] > 30 µM | GI50 [42] > 30 µM | GI50 [43] > 30 µM | GI50 [44] > 30 µM | GI50 [45] > 30 µM | GI50 [46] > 30 µM | GI50 [47] > 30 µM | GI50 [48] > 30 µM | GI50 [49] > 30 µM | GI50 [50] > 30 µM | GI50 [51] > 30 µM | GI50 [52] > 30 µM | GI50 [53] > 30 µM | GI50 [54] > 30 µM | GI50 [55] > 30 µM | GI50 [56] > 30 µM | GI50 [57] > 30 µM
> 30 µM: TGI [1] | TGI [2] | TGI [3] | TGI [4] | TGI [5] | TGI [6] | TGI [7] | TGI [8] | TGI [9] | TGI [10] | TGI [11] | TGI [12] | TGI [13] | TGI [14] | TGI [15] | TGI [16] | TGI [17] | TGI [18] | TGI [19] | TGI [20] | TGI [21] | TGI [22] | TGI [23] | TGI [24] | TGI [25] | TGI [26] | TGI [27] | TGI [28] | TGI [29] | TGI [30] | TGI [31] | TGI [32] | TGI [33] | TGI [34] | TGI [35] | TGI [36] | TGI [37] | TGI [38] | TGI [39] | TGI [40] | TGI [41] | TGI [42] | TGI [43] | TGI [44] | TGI [45] | TGI [46] | TGI [47] | TGI [48] | TGI [49] | TGI [50] | TGI [51] | TGI [52] | TGI [53] | TGI [54] | TGI [55] | TGI [56] | TGI [57]
